Results as given in patent publication US20230174488A1 (priority 2020, published 2023).
Like-named read-outs stand apart in the source and are kept apart here.

Experiments:
SARS-CoV-2 M^PRO = SARS-CoV-2 M^PRO (Severe acute respiratory syndrome coronavirus 2, UniProt P0DTD1); assay: biochemical; assay type: biochemical
SARS-CoV-2 = assay: In vitro antiviral cell-based assay (live SARS-CoV-2 IFA) in Vero cells; details: Severe acute respiratory syndrome coronavirus 2, MOI ~0.0125, 24 hpi
[1] = In vitro potency data, 30 min pre-incubation, 25 nM M^pro, 25 µM substrate, read-out: IC50

Row | Compound | IC50 (SARS-CoV-2 M^PRO; [1]) [nM] | further results
1 | O=C(NC1CCC(F)(F)CC1)C(c1cncnc1)N(C(=O)CCl)c1ccc(-c2cncs2)cc1 (single isomer, unassigned) [2-Chloro-N-(2-((4,4-difluorocyclohexyl)amino)-2-oxo-1-(pyrimidin-5-yl)ethyl)-N-(4-(thiazol-5-yl)phenyl)acetamide] | 50 | IC50 (SARS-CoV-2 M^PRO; SARS-CoV-2 M^pro IC50′ nM, General summary table): 50 nM; EC50 (SARS-CoV-2): 11.4 µM
2 | O=C(NC1CCC(F)(F)CC1)C(c1cncnc1)N(C(=O)CCl)c1ccc(-c2ccno2)cc1 (single isomer, unassigned) [INSCoV-600J(1), 2-Chloro-N-(2-((4,4-difluorocyclohexyl)amino)-2-oxo-1-(pyrimidin-5-yl)ethyl)-N-(4-(isoxazol-5-yl)phenyl)acetamide] | 63 | EC50 (SARS-CoV-2): 14.2 µM
3 | O=C(NC1CCC(F)(F)CC1)[C@@H](c1cncnc1)N(C(=O)[C@@H](F)Cl)c1ccc(-c2ccno2)cc1 (single isomer, unassigned) [INSCoV-614A(2A), 2-Chloro-N-(2-((4,4-difluorocyclohexyl)amino)-2-oxo-1-(pyrimidin-5-yl)ethyl)-2-fluoro-N-(4-(isoxazol-5-yl)phenyl)acetamide] | 180 | EC50 (SARS-CoV-2): 4.25 µM
4 | CCN(CC)CCCC(C)Nc1ccnc2cc(Cl)ccc12 (centres unmarked) [Chloroquine, chloroquine, reference compound] | – | EC50 (SARS-CoV-2): 7.35 µM
5 | O=C(NC1CC2(C1)CS(=O)(=O)C2)C(c1cncnc1)N(C(=O)CCl)c1ccc(-c2cnco2)cc1 (centres unmarked) [INSCoV-600H] | 660 | –
6 | O=C(NC1CCC(F)(F)CC1)C(c1cncnc1)N(C(=O)CCl)c1ccc(-c2ccno2)cc1 (centres unmarked) [INSCoV-600J, 2-Chloro-N-(2-((4,4-difluorocyclohexyl)amino)-2-oxo-1-(pyrimidin-5-yl)ethyl)-N-(4-(isoxazol-5-yl)phenyl)acetamide] | 110 | –
7 | O=C(NC1CCC(F)(F)CC1)C(c1cncnc1)N(C(=O)CCl)c1ccc(-c2ccncn2)cc1 (centres unmarked) [INSCoV-600L, 2-(N-(2-chloroacetyl)-4-pyrimidin-4-yl-anilino)-N-(4,4-difluorocyclohexyl)-2-pyrimidin-5-yl-acetamide] | 450 | –
8 | CN1CCC(NC(=O)C(c2cncnc2)N(C(=O)CCl)c2ccc(-c3cnco3)cc2)CC1 (centres unmarked) [INSCoV-600M, 2-(N-(2-chloroacetyl)-4-oxazol-5-yl-anilino)-N-(1-methyl-4-piperidyl)-2-pyrimidin-5-yl-acetamide] | 500 | –
9 | Cc1cc(F)cc(F)c1NC(=O)C(c1cncnc1)N(C(=O)CCl)c1ccc(-c2cnco2)cc1 (centres unmarked) [INSCoV-600N] | 1060 | –
10 | O=C(NC1CCC(F)(F)CC1)[C@H](c1cncnc1)N(CCc1cccc(F)c1)C(=O)C1CO1 (some centres unmarked) [INSCoV-600Q(1)] | 22600 | –
11 | O=C(NC1CCC(F)(F)CC1)[C@@H](c1cncnc1)N(CCc1cccc(F)c1)C(=O)C1CO1 (some centres unmarked) [INSCoV-600Q(2)] | 2220 | –
12 | O=C(NC1CCC(F)(F)CC1)C(c1cncnc1)N(CCc1cccc(F)c1)C(=O)C1CO1 (centres unmarked) [INSCoV-600Q] | 6980 | –
13 | O=C(NC1CCC(F)(F)CC1)C(c1cncnc1)N(C(=O)[C@H]1CO1)c1ccc(-c2cnco2)cc1 (some centres unmarked) [INSCoV-600R(1)] | 19900 | –
14 | O=C(NC1CCC(F)(F)CC1)[C@H](c1cncnc1)N(C(=O)[C@H]1CO1)c1ccc(-c2cnco2)cc1 [INSCoV-600R(1A)] | > 25000 | –
15 | O=C(NC1CCC(F)(F)CC1)C(c1cncnc1)N(C(=O)[C@@H]1CO1)c1ccc(-c2cnco2)cc1 (some centres unmarked) [INSCoV-600R(2)] | 6450 | –
16 | O=C(NC1CCC(F)(F)CC1)[C@@H](c1cncnc1)N(C(=O)[C@@H]1CO1)c1ccc(-c2cnco2)cc1 [INSCoV-600R(2B)] | > 25000 | –
17 | O=C(NC1CCC(F)(F)CC1)C(c1cncnc1)N(C(=O)C1CO1)c1ccc(-c2cnco2)cc1 (centres unmarked) [INSCoV-600R] | 12800 | –
18 | Cc1cc(-c2cccnc2)cc(F)c1NC(=O)C(c1cncnc1)N(C(=O)CCl)c1ccc(-c2cnco2)cc1 (centres unmarked) [INSCoV-600X] | 1390 | –
19 | O=C(NC1CCC(F)(F)CC1)C(c1cncnc1)N(C(=O)C1CO1)c1ccc(-c2ccno2)cc1 (centres unmarked) [INSCoV-600Y, N-(2-((4,4-Difluorocyclohexyl)Amino)-2-Oxo-1-(Pyrimidin-5-yl)Ethyl)-N-(4-(Isoxazol-5-yl)Phenyl)Oxirane-2-Carboxamide] | 1990 | –

Row | Compound | IC50 (SARS-CoV-2 M^PRO; [1]) [nM] | further results
20 | CN(C)C(=O)C1CCCC(NC(=O)C(c2cncnc2)N(C(=O)CCl)c2ccc(-c3cnco3)cc2)C1 (centres unmarked) [INSCoV-601CA] | 1150 | –
21 | O=C(NC1CCC(F)(F)CC1)C(c1ccnnc1)N(C(=O)CCl)c1ccc(-c2cncs2)cc1 (centres unmarked) [INSCoV-601F, 2-Chloro-N-(2-((4,4-Difluorocyclohexyl)Amino)-2-Oxo-1-(Pvridazin-4-vl)Ethyl)-N-(4-(Thiazol-5-vl)Phenyl)Acetamide] | 130 | –
22 | O=C(NC1CCC(F)(F)CC1)[C@H](c1ccnnc1)N(C(=O)CCl)c1ccc(-c2ccns2)cc1 [INSCoV-601J(2)] | 530 | –
23 | O=C(NC1CCC(F)(F)CC1)[C@@H](c1cncnc1)N(C(=O)CCl)c1ccc(-c2ccccc2)cc1 [INSCoV-601L] | 300 | –
24 | CC(=O)c1ccc(NC(=O)[C@@H](c2cnccn2)N(C(=O)CCl)c2ccc(-c3ccns3)cc2)[nH]1 [INSCoV-601M] | 1150 | –
25 | CC(C)c1cc(F)c(NC(=O)[C@@H](c2cncnc2)N(C(=O)CCl)c2ccc(-c3ccns3)cc2)c(F)c1 [INSCoV-601O] | 3060 | –
26 | CC(C(=O)NC1CCC(F)(F)CC1)(c1cncnc1)N(C(=O)CCl)c1ccc(-c2ccno2)cc1 (centres unmarked) [INSCoV-601P, 2-(2-Chloro-N-(4-(isoxazol-5-yl)phenyl)acetamido)-N-(4,4-difluorocyclohexyl)-2-(pyrimidin-5-yl)propanamide] | 380 | –
27 | O=C(NC1CCOC1)[C@H](c1cncnc1)N(C(=O)CCl)c1ccc(-c2cncs2)cc1 (some centres unmarked) [INSCoV-601R(1A)] | – | IC50 (SARS-CoV-2 M^PRO; In vitro potency data, 30 min pre-incubation, 25 nM M^pro, 25 µM substrate, listed as INSCoV-601R(lA), read-out: IC50): 140 nM
28 | O=C(NC1CCOC1)[C@H](c1cncnc1)N(C(=O)CCl)c1ccc(-c2cncs2)cc1 (some centres unmarked) [INSCoV-601R(1B)] | – | IC50 (SARS-CoV-2 M^PRO; In vitro potency data, 30 min pre-incubation, 25 nM M^pro, 25 µM substrate, listed as INSCoV-601R(lB), read-out: IC50): 440 nM
29 | O=C(NC1CCOC1)[C@H](c1cncnc1)N(C(=O)CCl)c1ccc(-c2cncs2)cc1 (some centres unmarked) [INSCoV-601R] | 120 | –
30 | O=C(NC1CCC(F)(F)C1)C(c1cncnc1)N(C(=O)CCl)c1ccc(-c2cncs2)cc1 (centres unmarked) [INSCoV-601S] | 90 | –
31 | COC(=O)c1ccc(NC(=O)[C@H](c2cncnc2)N(C(=O)CCl)c2ccc(-c3cncs3)cc2)[nH]1 [INSCoV-601T] | 170 | –
32 | N#CCC(=O)N(c1ccc(-c2cncs2)cc1)[C@H](C(=O)NC1CCC(F)(F)CC1)c1cncnc1 [INSCoV-612] | 23200 | –
33 | O=C(NC1CCC(F)(F)CC1)C(c1cncnc1)N(C(=O)C(F)Cl)c1ccc(-c2cncs2)cc1 (centres unmarked) [INSCoV-614, 2-Chloro-N-(2-((4,4-difluorocyclohexyl)amino)-2-oxo-1-(pyrimidin-5-yl)ethyl)-2-fluoro-N-(4-(thiazol-5-yl)phenyl)acetamide] | 330 | –
34 | O=C(NC1CCC(F)(F)CC1)C(c1cncnc1)N(C(=O)CF)c1ccc(-c2cncs2)cc1 (centres unmarked) [INSCoV-615] | 11400 | –
35 | C=C(F)C(=O)N(c1ccc(-c2cncs2)cc1)C(C(=O)NC1CCC(F)(F)CC1)c1cncnc1 (centres unmarked) [INSCoV-616] | 8360 | –
36 | CC1(C)OCc2cc(N(C(=O)CCl)C(C(=O)Nc3cncc4ccccc34)c3ccno3)cnc21 (centres unmarked) [INSCoV-704] | 19400 | –
37 | CNC(=O)c1cc(C)c(NC(=O)C(c2cncnc2)N(C(=O)CCl)c2ccc(-c3cnco3)cc2)c(Cl)c1 (centres unmarked) [INSCoV-6000, 3-chloro-4-[[2-(N-(2-chloroacetyl)-4-oxazol-5-yl-anilino)-2-pyrimidin-5-yl-acetyl]amino]-N,5-dimethyl-benzamide] | 1090 | –
